According to ChEMBL document CHEMBL2434909, “In vitro antimalarial activity, β-haematin inhibition and structure-activity relationships in a series of quinoline triazoles” (Eur J Med Chem, 2013):

Tests used:
CHO = experiment: Cytotoxicity against CHO cells by MTT assay; type: cell-based; conditions: Cricetulus griseus
[1] = Inhibition of NP-40-induced beta-haematin formation after 5 to 6 hrs hrs by UV-vis spectroscopic analysis; type: physicochemical

Structure (SMILES) | IC50 (CHO) [nM] | IC50 [1] [µM]
CC[C@H]1CN2CCc3cc(OC)c(OC)cc3[C@@H]2C[C@@H]1C[C@H]1NCCc2cc(OC)c(OC)cc21 [EMETINE] | 41 | –
CCN(CC)Cc1cc(Nc2ccnc3cc(Cl)ccc23)ccc1O | – | 6.8
CCN(CC)CCCC(C)Nc1ccnc2cc(Cl)ccc12 (stereo not drawn) [CHLOROQUINE] | – | 18.2
